Where two headings read alike, the source gives them in different places.

For data set [1], the system named is Abeta oligomer-induced membrane trafficking deficits. Briefly: Membrane trafficking/exocytosis (MTT) assay in mature primary hippocampal neurons. Particulars: for Functional Neuronal Phenotype: Table 10B. The data set is classed as cell-based, rat. As to the method: The present exocytosis assay was adapted for use with mature primary neuronal cultures grown for 3 weeks in vitro.
The methods used to generate the results were as follows in the Membrane Trafficking/Exocytosis (MTT) assay.
Primary hippocampal neurons from E18 Sprague-Dawley rat embryos were plated at optimized concentrations in 384 well plates in NB media (Invitrogen). Neurons were maintained in cultures for 3 weeks, with twice weekly feeding of NB media with N2 supplement (Invitrogen).
[…] MTT reagent (3-(4,5-dimethylthizaol-2yl)-2,5diphenyl tetrazolium bromide) (Roche Molecular Biochemicals) was reconstituted in phosphate buffered saline to 5 mg/mL. 10 μL of MTT labeling reagent is added to each well and incubated at 37° C. for 1 h, then imaged. Exocytosis was assessed by automated microscopy and image processing to quantify the amount of endocytosed and exocytosed formazan.
Each assay plate was formatted so that compounds are tested with and without Abeta oligomer on each plate.

The subject of data set [2] is Abeta oligomer-induced synapse loss. Briefly: Synapse loss assay (synaptophysin puncta) in primary neurons. The data set is classed as cell-based, rat. Particulars: for Block synapse loss: Table 10B; for Abeta oligomer-induced synapse loss: in words. Here is the method:
In this assay, Abeta oligomers were brought in contact with mature primary neurons in culture and their binding was determined by immunohistochemistry (anti-Abeta antibody) and quantified by image processing. The amount of Abeta in neuronal dendrites is assessed by counting the number of labeled puncta on the neuritis. […] This labeling is associated with synapses, co-localizing with the post-synaptic scaffold protein PSD-95 (Lacor et al., '04). […] The number of synapses can also be quantified in this assay by immunofluorochemistry. Similar procedures for binding assays can be found in the literature. […] Review.
Primary hippocampal neuronal culture was established as in the membrane trafficking assay above. […] Pretreatment with compounds to be tested lasted for 1 hr and addition of Abeta oligomers or no oligomer (vehicle alone) in a final concentration of 70 ul was followed by incubation for an additional 23 hrs.
The plates were then washed 3× with PBS for 5 min each. The plates were blocked at RT for 1 hr in 5% goat serum and 0.5% Triton X-100 in PBS. […] Primary antibodies were incubated overnight at 4° C. The plates were then washed 3× with PBS for 5 min each. […] Secondary antibodies were incubated at RT for 1 hr. The plates were washed once with PBS. DAPI (4′,6-diamidino-2-phenylindole, Invitrogen) was then applied at 0.03 ug/ul and incubated at RT for 5 min, then washed with PBS.
Images were captured and analyzed with the Cellomics VTI automated microscope platform, using the Neuronal Profiling algorithm. For statistical analysis, a Tukey-Kramer pair-wise comparison with unequal variance was used.

Data set [3] has as its system SKOV-3 human ovarian cancer cell line. Briefly: MTS tumor cell viability assay. The data set is classed as cell-based. The note with it: for Action: agonist/antagonist call relative to siramesine; for IC50: Tumor cell viability, 48 hrs. As to the method: The cytotoxicity of compounds shown below was determined using the CellTiter96 Aqueous One Solution Assay (Promega, Madison, Wis.). […] The plate was read at 490 nm in a Victor3 plate reader (PerkinElmer Life and Analytical Sciences, Shelton, Conn.). The EC^50 value, defined as the concentration of the sigma ligand required to inhibit cell viability by 50% relative to untreated cells, was determined from the dose response curve for each cell line.

In data set [4] the test system is caspase-3 activity in SKOV-3 human ovarian cancer cells. Briefly: Caspase-3 activity assay in tumor cells. The class given is cell-based.
For data set [5], the system named is caspase-3 activity in neurons. Briefly: Caspase-3 activity assay in neurons. The class given is cell-based. As to the method:
The activation of endogenous caspase-3 by sigma-2 receptor ligands was measured using the Caspase-3 Colorimetric Activity Assay Kit (Milipore, Billerica, Mass.) according to the manufacture's protocol. Briefly, MDA-MB 435 or MDA-MB23I cells were plated at 0.5×10^6 cells 100 mm dish. 24 hours after plating, sigma-2 ligands were added to the culture dishes to induce caspase 3 activation. The final concentration of the sigma-2 ligand was its EC50. 24 hours after treatment, cells were harvested, lysed in 300 uL of Cell Lysis Buffer, and centrifuged for 5 minutes at 10,000×g. Supernatant was collected and incubated with caspase-3 substrate, DEVD-pNA, for 2 hours at 37° C. […] Compounds IXa,IXb and II behaved like sigma-2 […] in both cancer cells and neurons.

Data set [6] deals with neuronal cultures.
For data set [7], the system named is neuronal cultures. Put plainly: Nuclear intensity / morphology in neuronal cultures. The note with it: 24 hours.
A further data set has as its system sigma-2 receptor. Briefly: Autoradiography, displacement of [3H]-RHM-1 in brain sections. The class given is binding. The note with it: 1 μM; monkey frontal cortex, monkey hippocampus, human temporal cortex. On the technique in general: Loss of bound radioactivity is the signal in a displacement assay; it reports binding, not function.

Procedure for sigma-2 receptor: Brain sections in 20 μM thickness from rats, rhesus monkeys and postmortem human brains were cut using with a Microm cryotome and mounted on superfrost plus glass slides (Fisher Scientific, Pittsburgh, Pa.)., and serial sections through the brain regions of cerebral cortex and hippocampus were used in this study.
Slides were dried and made conductive by coating with a copper foil tape on the free side and then placed in the gas chamber [mixture of argon and triethylamine (Sigma-Aldrich, USA)] of a gaseous detector, the Beta Imager 2000Z Digital Beta Imaging System (Biospace, France). […] [^3H]Microscale (American Radiolabeled Chemicals, Inc., St. Louis, Mo.) was counted at the same time as a reference for total radioactivity quantitative analysis, i.e., to convert the cpm/mm2 to nCi/mg tissue. Quantitative analysis was performed with the program Beta-Image Plus (BioSpace, France) for the anatomical regions of interest (ROI), i.e., to obtain the quantitative radioactivity uptake (cpm/nlln2) in the regions of cortex and hippocampus. The binding density was normalized to fmol/mg tissue based on the specific activities of the corresponding radioligands and calibration curve from the standard [^3H]Microscale.

As for `COc1cc(CCC(C)NCc2ccc(C(F)(F)F)cc2)ccc1O` (single isomer, unassigned; (+)) [(+) enantiomer of Cpd II], the “Functional Neuronal Phenotype” value in data set [1] is recorded as “Antagonist”. Moreover, the EC50 in data set [1] (dose response of % vesicles against Abeta oligomer concentration, 0 uM of enantiomer (Abeta oligomer alone), read-out: EC50 against Abeta at Concentration 0 uM) was found to be 1190 nM; in data set [1] (read-out: EC50 against Abeta at Concentration 20 uM, dose response of % vesicles against Abeta oligomer concentration, 20 uM of enantiomer), 1460 nM. Besides, the Block synapse loss in data set [2] (listed as II (+) isomer) was determined as 47%.
As to `COc1cc(CCC(C)NCc2ccc(C(F)(F)F)cc2)ccc1O` (single isomer, unassigned; (-)) [(−) enantiomer of Cpd II], the EC50 in data set [1] (Rattus norvegicus, Hippocampal neuron, Table 4, read-out: EC50 in screening assay using single concentration of Abeta oligomer) was determined as 10900 nM; in data set [1] (Rattus norvegicus, Hippocampal neuron, dose response of % vesicles against Abeta oligomer concentration, 0 uM of enantiomer (Abeta oligomer alone), read-out: EC50 against Abeta at Concentration 0 uM), 1050 nM; in data set [1] (Rattus norvegicus, Hippocampal neuron, read-out: EC50 against Abeta at Concentration 20 uM, dose response of % vesicles against Abeta oligomer concentration, 20 uM of enantiomer), 2820 nM. Besides, the “Functional Neuronal Phenotype” value in data set [1] is on record as “Antagonist”. The same compound showed a Block synapse loss in data set [2] (listed as II (−) isomer) of 0%.
In the case of `CCCN(CCC)CCc1ccc(OC)c(OCCc2ccccc2)c1` [NE-100, reference compound], the “Abeta oligomer-induced synapse loss” value in data set [2] is on record as “completely eliminated synapse loss”.
As for `COc1cc2c(cc1OC)CN(CCCCNC(=O)c1cc(C)ccc1OC)CC2` [RHM-1, N-[4-(3,4-dihydro-6,7-dimethoxyisoquinolin-2(1H)-yl)butyl]-2-methoxy-5-methylbenzamide], the Action entry in data set [3] is reported as “Antagonist”. Besides, in data set [4], the “Block of caspase-3 activation caused by sigma-2 receptor agonist SV-119” value is given as “do not block caspase-3 activation” and the “Induction of caspase-3 activity” value is given as “did not induce caspase-3 activity”. Besides, in data set [5], the “Induction of caspase-3 activity” value is “did not induce caspase-3 activity”. Also, the “Nuclear morphology / nuclear intensity compared to vehicle” value in the data set with neuronal cultures [6] was “did not decrease nuclear intensity”.
For orientation: IC50 means the concentration needed to halve the response being measured. Turning to `COc1ccc(C)cc1NC(=O)OC1CC2CCCC(C1)N2CCCCCCN` (stereo not drawn) [SV-119], in data set [3], the IC50 is 21700 ± 2900 nM and the Action entry is recorded as “Full agonist”. In data set [4], the “Induction of caspase-3 activity” value is “activate caspase-3”. In addition, the “Induction of caspase-3 activity” value in data set [5] is “activate caspase-3”. In addition, the “Nuclear morphology / nuclear intensity compared to vehicle” value in the data set with neuronal cultures [7] is reported as “caused significant abnormal nuclear morphology”.
On to `Fc1ccc(-n2cc(CCCCN3CCC4(CC3)OCc3ccccc34)c3ccccc32)cc1` [Siramesine], for which the “Displacement of 18.4 nM [3H]-RHM-1” value in the data set on sigma-2 receptor is “partially displace”. Also, in data set [3], the Action result was “Full agonist”. In addition, the figures for the “Induction of caspase-3 activity” value in data set [4] and in data set [5] were “induced caspase-3 activity” and “induced”, respectively. Further, in the data set on neuronal cultures [7], the “Nuclear morphology / nuclear intensity compared to vehicle” value is on record as “caused significant abnormal nuclear morphology”.
Take `COc1ccc(C)cc1NC(=O)OC1CC2CCCC(C1)N2Cc1ccc(N(C)C)cc1` (stereo not drawn) [WC-26]: in data set [3], the IC50 came to 65600 ± 6300 nM and the Action entry is “Partial agonist”. Also, the “Nuclear morphology / nuclear intensity compared to vehicle” value in the data set with neuronal cultures [7] is reported as “caused significant abnormal nuclear morphology”.
For the compound `O=C(CCCN1CCC(O)(c2ccc(Cl)cc2)CC1)c1ccc(F)cc1` [haloperidol, reference compound], the “Abeta oligomer-induced synapse loss” value in data set [2] is “completely eliminated synapse loss”.
Regarding “synthetic Abeta oligomer: Abeta 1-42 oligomers made according to published methods [reference compound]”, the EC50 in data set [1] (synthetic Abeta oligomer alone, read-out: EC50 of Abeta oligomer in membrane trafficking assay) was 820 nM.

The record behind these values is patent US20170197977A9, “COMPOSITIONS AND METHODS FOR TREATING NEURODEGENERATIVE DISEASE” (COGNITION THERAPEUTICS, INC., priority 2011, published 2017).
